{"source": "patent US20240270855A1", "about": "“NEURO-MESENCHYME UNITS CONTROL ILC2 AND OBESITY VIA A BRAIN-ADIPOSE CIRCUIT” (Fundação D. Anna de Sommer Champalimaud e Dr. Carlos Montez …, priority 2021, published 2024)", "molecules": {"B1": {"name": "GDNF: glial cell-derived neurotrophic factor, a GFRα ligand that activates RET (protein, UniProt P39905 78-211, looked up)", "Glial cell line-derived …": "SPDKQMAVLPRRERNRQAAAANPENSRGKGRRGQRGKNRGCVLTAIHLNVTDLGLGYETKEELIFRYCSGSCDAAETTYDKILKNLSRNRRLVSDKVGQACCRPIAFDDDLSFLDDNLVYHILRKHSAKRCGCI"}}, "key": {"[1]": {"test_system": "dopaminergic and noradrenergic neurons", "experiment": "Chemical sympathetic ablation with 6-OHDA, GAT ILC2 cytokines by flow cytometry", "assay_type": "in vivo, mice"}, "[2]": {"test_system": "PDGFRA positive MSC", "experiment": "RNA sequencing of PDGFRA positive MSC from 6-OHDA-treated mice", "assay_type": "in vivo", "conditions": "RNAseq, 6-OHDA vs vehicle"}, "[3]": {"test_system": "GAT", "experiment": "Quantitative RT-PCR gene expression in GAT and GAT cell populations after 6-OHDA or clenbuterol", "assay_type": "in vivo, mice", "conditions": "for expression of IL-33: GAT and PDGFRA+MSCs of treated mice; for Gdnf expression in other mesenchymal counterparts, adipocytes and endothelial cells: GAT cell populations; for expression of IL-25: PDGFRA+MSCs of treated mice; for Gdnf expression in PDGFRA+MSC: sorted GAT cell population; for Gdnf expression in the GAT: total GAT RNA"}, "[4]": {"molecular_target": "RET (Homo sapiens, UniProt P07949)", "sequence (P07949 29-1114)": "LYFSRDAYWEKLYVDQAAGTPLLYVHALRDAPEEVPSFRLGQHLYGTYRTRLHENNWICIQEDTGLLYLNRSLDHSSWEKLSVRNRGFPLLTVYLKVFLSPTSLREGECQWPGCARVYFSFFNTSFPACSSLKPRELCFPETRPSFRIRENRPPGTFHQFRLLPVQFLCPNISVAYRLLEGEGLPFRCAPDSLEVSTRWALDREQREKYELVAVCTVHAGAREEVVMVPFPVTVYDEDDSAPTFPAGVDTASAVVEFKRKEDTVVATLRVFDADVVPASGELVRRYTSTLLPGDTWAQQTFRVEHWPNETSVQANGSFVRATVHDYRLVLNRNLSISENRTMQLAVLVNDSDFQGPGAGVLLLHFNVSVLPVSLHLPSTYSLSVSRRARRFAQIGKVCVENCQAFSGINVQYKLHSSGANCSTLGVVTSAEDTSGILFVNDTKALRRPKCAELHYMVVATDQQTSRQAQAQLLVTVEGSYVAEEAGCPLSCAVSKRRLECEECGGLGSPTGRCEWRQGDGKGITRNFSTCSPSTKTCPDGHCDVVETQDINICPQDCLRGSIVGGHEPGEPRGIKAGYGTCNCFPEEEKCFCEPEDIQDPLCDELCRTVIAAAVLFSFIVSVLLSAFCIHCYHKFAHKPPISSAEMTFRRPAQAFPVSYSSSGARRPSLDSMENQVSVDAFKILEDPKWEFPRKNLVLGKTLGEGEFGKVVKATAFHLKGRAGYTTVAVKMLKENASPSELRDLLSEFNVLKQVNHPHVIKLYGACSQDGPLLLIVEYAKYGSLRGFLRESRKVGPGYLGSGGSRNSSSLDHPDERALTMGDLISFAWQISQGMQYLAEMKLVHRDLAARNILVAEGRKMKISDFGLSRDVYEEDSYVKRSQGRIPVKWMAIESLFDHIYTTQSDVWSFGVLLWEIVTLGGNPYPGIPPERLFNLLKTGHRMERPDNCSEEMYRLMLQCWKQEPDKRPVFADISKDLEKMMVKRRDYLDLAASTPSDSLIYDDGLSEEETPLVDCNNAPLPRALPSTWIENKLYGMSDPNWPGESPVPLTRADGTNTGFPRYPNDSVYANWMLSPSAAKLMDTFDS", "conditions": "Akeno-Stuart et al., Cancer Res. 2007; cited from earlier work"}, "[5]": {"test_system": "DREADD-carrying neurons", "experiment": "Chemogenetic modulation of GAT neurons (AAV DREADD injected in GAT, then CNO)", "assay_type": "in vivo, mice", "conditions": "for interleukin-33 (Il33) expression: vs contralateral control"}, "[6]": {"test_system": "RET", "conditions": "Tokugawa et al., Neurochem Int. 2003; cited from earlier work"}, "[7]": {"molecular_target": "T1, beta-2 adrenergic receptor (ADRB2) (Mus musculus, UniProt P18762)", "T1 construct": "endogenous in cells; host or cells: C57BL/6J mice in vivo", "T1 sequence (P18762 whole entry)": "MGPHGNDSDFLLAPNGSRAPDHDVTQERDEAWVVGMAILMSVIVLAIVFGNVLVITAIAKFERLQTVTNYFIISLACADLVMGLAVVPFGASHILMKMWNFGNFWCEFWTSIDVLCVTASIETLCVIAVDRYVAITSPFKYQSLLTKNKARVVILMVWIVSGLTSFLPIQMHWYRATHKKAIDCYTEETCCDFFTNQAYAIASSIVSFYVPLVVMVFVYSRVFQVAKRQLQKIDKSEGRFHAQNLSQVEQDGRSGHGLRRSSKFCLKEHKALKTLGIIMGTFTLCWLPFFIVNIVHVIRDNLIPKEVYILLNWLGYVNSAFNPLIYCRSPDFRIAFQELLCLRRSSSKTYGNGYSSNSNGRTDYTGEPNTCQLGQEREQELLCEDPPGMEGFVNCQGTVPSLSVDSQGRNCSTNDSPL", "experiment": "Systemic activation of ADRB2 with clenbuterol, GAT ILC2 cytokines", "assay_type": "in vivo, mice", "conditions": "clenbuterol in drinking water, 10 mg/kg/day, 8 days"}, "[8]": {"test_system": "purified GAT PDGFRA+MSCs", "experiment": "In vitro MSC activation with clenbuterol, MSC-derived GDNF", "assay_type": "cell-based, mice", "conditions": "10 μg/ml clenbuterol, 16 hours", "protocol": "In vitro and in vivo MSC activation: For in vitro experiments, purified GAT PDGFRA+MSCs were cultured in complete DMEM (supplemented with 10% FBS, 1% HEPES, sodium pyruvate, glutamine, streptomycin and penicillin (Corning)) at 37° C. After 2 hours of rest in complete DMEM without FBS, MSCs were stimulated for 16 hours with 10 μg/ml clenbuterol. For RNA analysis, MSCs were lysed using RLT buffer (Qiagen). For GDNF protein analysis, MSCs were incubated with brefeldin A (eBioscience) during clenbuterol stimulation prior to intracellular staining."}, "[9]": {"test_system": "GAT explant/ILC2 co-cultures", "experiment": "GAT explant/ILC2 co-culture with GDNF, Ucp1 expression", "assay_type": "cell-based, mice", "conditions": "50 ng/mL, 16 hours, Ret^WT vs Ret^Δ ILC2; RET dependent", "protocol": "Quantitative RT-PCR: Total RNA from sorted or cultured cells was extracted using RNeasy micro kit or RNeasy mini kit (Qiagen) according to the manufacturer's protocol. When indicated, total adipose tissue or adipocyte fraction was collected to Trizol (Invitrogen) followed by chloroform and isopropanol RNA extraction, according to the manufacturer's protocol. RNA concentration was determined using Nanodrop Spectrophotometer (Nanodrop Technologies). Quantitative real-time PCR was performed in StepOne and QuantStudio 5 real-time PCR systems (Applied Biosystems) with Hprt and Gapdh as housekeeping genes. Briefly, High Capacity RNA-to-cDNA Kit (Applied Biosystems) were used to retro-transcribe RNA, followed by a pre-amplification PCR using TaqMan PreAmp Master Mix (Applied Biosystems). TaqMan Gene Expression Master Mix (Applied Biosystems) was used in the real-time PCR. TaqMan Gene Expression Assays (Applied Biosystems) were the following: Hprt Mm00446968_m1; Gapdh Mm99999915_g1; […] Mm00439646_m1; […] Mm00434204_m1; Areg Mm01354339_m1; Penk Mm01212875_m1; Ret Mm00436304_m1; Gdnf Mm00599849_m1; Ucp1 Mm01244861_m1; Adrb2 Mm02524224_s1; Il25 Mm00499822_m1; and Il33 Mm00505403_m1. Analysis was performed using the comparative CT method (2^−ΔCT). When comparison or fold change between samples was required, the comparative ΔCT method (2^−ΔΔCT) was applied. […]"}, "[10]": {"conditions": "GAT, 6-OHDA 200 mg/kg intraperitoneally 3 days and 1 day before analysis, vs vehicle"}, "[11]": {"conditions": "AAV(3D) (activator DREADD), vs sham contralateral control"}, "[12]": {"conditions": "AAV(4D) (inhibitor DREADD), vs sham contralateral control"}}}
{"molecule": "NCCc1cc(O)c(O)cc1O", "note": "[6-OHDA, 6-hydroxydopamine]", "values": [{"measurement": "ILC2 cytokine production", "setting": "[1]; Adrb2^ΔIl7ra mice", "result": "still impaired"}, {"measurement": "ILC2-derived IL-13", "setting": "[1]; [10]", "result": "pronounced reduction"}, {"measurement": "ILC2-derived Met-Enk", "setting": "[1]; [10]", "result": "pronounced reduction"}, {"measurement": "ILC2-derived interleukin (IL-) 5", "setting": "[1]; [10]", "result": "pronounced reduction"}, {"measurement": "ILC2 cytokine production", "setting": "[1]; Ret^ΔIl5 mice", "result": "unperturbed"}, {"measurement": "percentage of CD4 T cells", "setting": "[1]; after 6-OHDA administration", "result": "no change"}, {"measurement": "GDNF expression by PDGFRA positive MSC", "setting": "[2]", "result": "significantly reduced"}, {"measurement": "expression of IL-33", "setting": "[3]", "result": "unperturbed"}, {"measurement": "Gdnf expression in other mesenchymal counterparts, adipocytes and endothelial cells", "setting": "[3]", "result": "unperturbed"}, {"measurement": "expression of IL-25", "setting": "[3]", "result": "unperturbed"}, {"measurement": "Gdnf expression in PDGFRA+MSC", "setting": "[3]", "result": "modulated"}, {"measurement": "Gdnf expression in the GAT", "setting": "[3]", "result": "modulated"}]}
{"molecule": "CCN1CCN(Cc2ccc(NC(=O)Nc3ccc(Oc4cc(NC)ncn4)cc3)cc2C(F)(F)F)CC1", "note": "[AST 487, 1-[4-[(4-ethylpiperazin-1-yl)methyl]-3-(trifluoromethyl)phenyl]-3-[4-[6-(methylamino)pyrimidin-4-yl]oxyphenyl]urea]", "values": [{"measurement": "RET autophosphorylation and activation of downstream effectors", "setting": "[4]", "result": "inhibit RET autophosphorylation"}]}
{"molecule": "C[N+]1([O-])CCN(C2=Nc3cc(Cl)ccc3Nc3ccccc32)CC1", "note": "[CNO, Clozapine-N-oxide]", "values": [{"measurement": "GDNF expression in GAT", "setting": "[5]; [11]", "result": "increased"}, {"measurement": "ILC2 function", "setting": "[5]; [11]", "result": "increased"}, {"measurement": "interleukin-33 (Il33) expression", "setting": "[5]; AAV(3D)", "result": "did not affect"}, {"measurement": "GDNF expression in GAT", "setting": "[5]; [12]", "result": "reduced"}, {"measurement": "innate type 2 cytokines", "setting": "[5]; [12]", "result": "reduced"}, {"measurement": "interleukin-33 (Il33) expression", "setting": "[5]; AAV(4D)", "result": "did not affect"}]}
{"molecule": "CCN(CC)CCCC(C)Nc1cc(/C=C/c2ccccc2Cl)nc2cc(Cl)ccc12", "note": "(centres unmarked) [XIB4035, N(4)-(7-chloro-2-[(E)-2-(2-chloro-phenyl)-vinyl]-quinolin-4-yl)-N(1),N(1)-diethyl-pentane-1,4-diamine]", "values": [{"measurement": "RET autophosphorylation", "setting": "[6]", "result": "induced RET autophosphorylation"}]}
{"molecule": "CC(C)(C)NCC(O)c1cc(Cl)c(N)c(Cl)c1", "note": "(centres unmarked) [clenbuterol]", "values": [{"measurement": "ILC2-derived cytokines in the GAT", "setting": "[7]", "result": "increased"}, {"measurement": "expression of IL-33", "setting": "[3]", "result": "unperturbed"}, {"measurement": "Gdnf expression in other mesenchymal counterparts, adipocytes and endothelial cells", "setting": "[3]", "result": "unperturbed"}, {"measurement": "expression of IL-25", "setting": "[3]", "result": "unperturbed"}, {"measurement": "Gdnf expression in PDGFRA+MSC", "setting": "[3]", "result": "modulated"}, {"measurement": "Gdnf expression in the GAT", "setting": "[3]", "result": "modulated"}, {"measurement": "MSC-derived GDNF", "setting": "[8]", "result": "increased"}]}
{"molecule": "B1", "values": [{"measurement": "Ucp1 expression", "setting": "[9]", "result": "efficiently induced"}, {"measurement": "RET autophosphorylation", "setting": "[6]", "result": "induced RET autophosphorylation"}]}
